Results as given in PubChem BioAssay AID2060357 (Molecular Pharmacology Branch, DTP, NCI, 2025).
Several values for one entry are separate records, joined by “and”; a condition that tells them apart may be missing. Equal entries are not always repeated.

Test system: 292921-168-R-J2-PDC spheroids with HUVEC/MSC, viability
Assay: Anticancer human tumor 292921-168-R-J2-PDC patient-derived pancreatic carcinoma cell line growth inhibition [TAK]
Conditions: for viability, T/C: stronger effect = lower value
Excerpt: Combinatorial screen of targeted agents with TAK-243 and ipatasertib in multi-cell type tumor spheroids
A high-throughput screen of multi-cell type tumor spheroids was designed to identify active combinations of targeted small molecules and TAK-243 or ipatasertib. Complex spheroids include a stromal component modeled by human endothelial cells (HUVEC) and fibroblasts modeled by human mesenchymal stem cells (MSCs). The concentration ranges selected for each drug and investigational agent were based upon clinically achievable concentrations if the clinical Cmax of the agent was known.
Compounds. The drugs and investigational agents: TAK-243 (785004), ipatasertib (767898), everolimus (733504), selumetinib (741078), bortezomib (756655), trametinib (758246), ixazomib (758254), vemurafenib (761431), dabrafenib (764134), sapanisertib (764658), alpelisib (765974), and copanlisib (816437), were obtained from the National Cancer Institute (NCI) Developmental Therapeutics Program Chemical Repository. The FDA-approved anticancer drug set is available from the NCI Developmental Therapeutics Program. […] The stock solutions were prepared in dimethyl sulfoxide (DMSO, Sigma-Aldrich, St. Louis, MO, cat. D2650) at 800-fold the tested concentration and stored at -70 degrees C prior to their use. All drugs and investigational agents were tested over a range starting from a high concentration at or near the clinical Cmax and decreasing in half-log increments. If the clinical Cmax for an agent had not been determined, the highest concentration tested was 10 microM.
NCI60 Cell Culture. NCI60 cell lines were obtained from the NCI Developmental Therapeutics Program Tumor Repository. For each lot of cells, the Repository performed Applied Biosystems AmpFLSTR Identifiler testing with PCR amplification to confirm consistency with the published Identifier STR profile for each cell line. Cells were kept in continuous culture for no more than 20 passages. The optimal seeding densities for each of the cell lines at each time point assessed were determined prior to performing the concentration response studies. Briefly, the NCI60 human tumor lines were grown as monolayers in RPMI 1640 medium supplemented with 10% FBS and 2 mmol/L L-glutamine.
An additional 2 lines were from the NCI60 cell line panel including melanomas, MALME-3M and SK-MEL-2. Pooled donor human umbilical vein endothelial cells (HUVEC, Lonza, cat. CC-2519) and human mesenchymal stem cells (hMSC, Lonza, cat. PT-2501) were purchased from Lonza (Walkersville, MD).
PDMR cell lines were grown in complete medium (DC medium): Dulbecco's modified Eagle's medium (DMEM)/F12 supplemented with 5% fetal bovine serum (FBS), 2 mM L-glutamine, 100 U/mL penicillin and 100 µg/ml streptomycin, 0.4 µg/ml hydrocortisone, 10 ng/ml epidermal growth factor (EGF) recombinant human protein, 24 µg/mL adenine, and 0.1 mg/mL primocin. During culture from frozen stock vials, PDMR cells were cultured in the same medium containing 10 µM Y-27632 (see Table 3). The PDCs were cultured in complete DMEM/F12 media without 10 microM Y-27632 dihydrochloride for at least two passages prior to the screen. The pooled donor HUVEC and hMSC were cultured in endothelial cell growth medium 2 (PromoCell, Heidelberg, Germany, cat. C-22011) and mesenchymal stem cell growth medium 2 (PromoCell, cat. C-28009), respectively. For all experiments, HUVEC and hMSC were used at passages </=5.
For the pre-screen, cell seeding densities were determined from a titration spanning the range from 5,000 to 313 cells per well. The mct-spheroids including 60% malignant cells, 25% HUVEC and 15% MSC dispensed as a mixture into U-bottom Ultra-Low Attachment 384-well plates (Corning, NY)
High-throughput Drug Combination Screening.
Prior to their inoculation into 384-well plates, malignant cells, HUVEC, and hMSC were removed from T flasks using TrypLE express (Thermo Fisher Scientific, cat. 12605036) and harvested by centrifugation for 5 min at 233 x g. […]
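Further: spheroids exposed to drugs for seven days before readout.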

Cc1nc(NC(=O)N2CCCC2C(N)=O)sc1-c1ccnc(C(C)(C)C(F)(F)F)c1 (centres undefined)
viability, T/C (compound 0.0316 µM): 97.9% and 99.8%
viability, T/C (compound 0.1 µM): 78.4% and 71.1%
viability, T/C (compound 0.316 µM): 61.5% and 55.7%
viability, T/C (compound 1 µM): 44.4% and 38.9%
viability, T/C (compound 3.16 µM): 30.1% and 28.9%
viability, T/C (compound 10 µM): 20.4% and 22.4%
IC50 (curve of compound): 672 nM and 422 nM

CC(=O)Nc1cccc(-n2c(=O)n(C3CC3)c(=O)c3c(Nc4ccc(I)cc4F)n(C)c(=O)c(C)c32)c1
viability, T/C (compound 94.9 pM): 91.6% and 97.1%
viability, T/C (compound 0.0003 µM): 58.9% and 67.7%
viability, T/C (compound 0.000949 µM): 36.9% and 48.5%
viability, T/C (compound 0.003 µM): 25.6% and 25.7%
viability, T/C (compound 0.00949 µM): 17.6% and 20.3%
viability, T/C (compound 0.03 µM): 11.1%
IC50 (curve of compound): 0.49 nM and 0.767 nM

COc1c(OCCCN2CCOCC2)ccc2c3n(c(=NC(=O)c4cnc(N)nc4)nc12)CCN3 + CC(C)NCC(C(=O)N1CCN(c2ncnc3c2C(C)CC3O)CC1)c1ccc(Cl)cc1
IC50 (curve of first compound, second compound 0.3 µM): 4.15 nM
IC50 (curve of first compound, second compound 0.949 µM): < 3.16 nM
IC50 (curve of first compound, second compound 3 µM): < 3.16 nM
IC50 (curve of first compound, second compound 9.49 µM): < 3.16 nM
IC50 (curve of first compound, second compound 30 µM): < 3.16 nM
viability, T/C (second compound 0.3 µM, first compound 0.00316 µM): 55.2%
viability, T/C (second compound 0.3 µM, first compound 0.01 µM): 33.2%
viability, T/C (second compound 0.3 µM, first compound 0.0316 µM): 19.1%
viability, T/C (second compound 0.3 µM, first compound 0.1 µM): 13.5%
viability, T/C (second compound 0.3 µM, first compound 0.316 µM): 10.2%
viability, T/C (second compound 0.3 µM, first compound 1 µM): 9.21%
viability, T/C (second compound 0.949 µM, first compound 0.00316 µM): 43.5%
viability, T/C (second compound 0.949 µM, first compound 0.01 µM): 27.5%
viability, T/C (second compound 0.949 µM, first compound 0.0316 µM): 20%
viability, T/C (second compound 0.949 µM, first compound 0.1 µM): 13.1%
viability, T/C (second compound 0.949 µM, first compound 0.316 µM): 9.66%
viability, T/C (second compound 0.949 µM, first compound 1 µM): 8.79%
viability, T/C (second compound 3 µM, first compound 0.00316 µM): 30.2%
viability, T/C (second compound 3 µM, first compound 0.01 µM): 21.4%
viability, T/C (second compound 3 µM, first compound 0.0316 µM): 15.2%
viability, T/C (second compound 3 µM, first compound 0.1 µM): 12.4%
viability, T/C (second compound 3 µM, first compound 0.316 µM): 9.94%
viability, T/C (second compound 3 µM, first compound 1 µM): 8.66%
viability, T/C (second compound 9.49 µM, first compound 0.00316 µM): 26.4%
viability, T/C (second compound 9.49 µM, first compound 0.01 µM): 15.9%
viability, T/C (second compound 9.49 µM, first compound 0.0316 µM): 12%
viability, T/C (second compound 9.49 µM, first compound 0.1 µM): 9.29%
viability, T/C (second compound 9.49 µM, first compound 0.316 µM): 8.18%
viability, T/C (second compound 9.49 µM, first compound 1 µM): 7.72%
viability, T/C (second compound 30 µM, first compound 0.00316 µM): 19.8%
viability, T/C (second compound 30 µM, first compound 0.01 µM): 14.1%
viability, T/C (second compound 30 µM, first compound 0.0316 µM): 10.3%
viability, T/C (second compound 30 µM, first compound 0.1 µM): 7.72%
viability, T/C (second compound 30 µM, first compound 0.316 µM): 6.76%
viability, T/C (second compound 30 µM, first compound 1 µM): 7.15%
